From ChEMBL document CHEMBL1135259, “Azapeptides as inhibitors of the hepatitis C virus NS3 serine protease” (Bioorg Med Chem Lett, 2002)

Molecular target: T1, NS3 (Hepatitis C virus, UniProt A3EZJ3)
Assay: Binding affinity against Hepatitis C virus NS3 protease was calculated as Kcat
Parameters: species or system Hepacivirus hominis

T1 sequence (A3EZJ3 whole entry): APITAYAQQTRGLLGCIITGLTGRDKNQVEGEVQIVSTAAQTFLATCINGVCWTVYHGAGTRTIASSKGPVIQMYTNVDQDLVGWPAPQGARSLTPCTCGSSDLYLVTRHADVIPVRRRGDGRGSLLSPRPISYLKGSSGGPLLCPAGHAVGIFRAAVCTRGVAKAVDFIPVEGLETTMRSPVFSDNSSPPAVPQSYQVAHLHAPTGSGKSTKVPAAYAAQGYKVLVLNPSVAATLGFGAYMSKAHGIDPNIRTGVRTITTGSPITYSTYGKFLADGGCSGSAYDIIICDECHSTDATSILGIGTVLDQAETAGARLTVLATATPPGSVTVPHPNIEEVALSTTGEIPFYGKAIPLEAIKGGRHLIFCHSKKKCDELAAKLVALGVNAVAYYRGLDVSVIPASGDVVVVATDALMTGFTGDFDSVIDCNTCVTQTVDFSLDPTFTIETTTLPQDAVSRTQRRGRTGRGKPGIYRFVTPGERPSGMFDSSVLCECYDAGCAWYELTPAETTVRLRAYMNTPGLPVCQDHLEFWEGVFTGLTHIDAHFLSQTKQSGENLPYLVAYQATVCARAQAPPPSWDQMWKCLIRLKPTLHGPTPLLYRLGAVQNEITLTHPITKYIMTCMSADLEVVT

SMILES | Ki [min⁻¹]
CCCN(NC(=O)[C@H]1CCCN1C(=O)[C@@H](NC(=O)[C@@H](NC(=O)[C@H](CC(=O)O)NC(=O)[C@H](CCC(=O)O)NC(=O)[C@@H](NC(=O)[C@H](CC(=O)O)NC(C)=O)[C@@H](C)O)C(C)C)C(C)C)C(=O)Oc1ccc([N+](=O)[O-])cc1 | 0.5

Molecular target: T1, NS3
Assay: Binding affinity against Hepatitis C virus NS3 protease
Parameters: species or system Hepacivirus hominis

Ki [µM] | SMILES
0.2 | CCCN(NC(=O)[C@H]1CCCN1C(=O)[C@@H](NC(=O)[C@@H](NC(=O)[C@H](CC(=O)O)NC(=O)[C@H](CCC(=O)O)NC(=O)[C@@H](NC(=O)[C@H](CC(=O)O)NC(C)=O)[C@@H](C)O)C(C)C)C(C)C)C(=O)OC(Cl)C(Cl)(Cl)Cl (some centres not stated)
80 | CCCN(NC(=O)[C@H]1CCCN1C(=O)[C@@H](NC(=O)[C@@H](NC(=O)[C@H](CC(=O)O)NC(=O)[C@H](CCC(=O)O)NC(=O)[C@@H](NC(=O)[C@H](CC(=O)O)NC(C)=O)[C@@H](C)O)C(C)C)C(C)C)C(=O)OCc1ccccc1
> 100 | CCCN(NC(=O)[C@H]1CCCN1C(=O)[C@@H](NC(=O)[C@@H](NC(=O)[C@H](CC(=O)O)NC(=O)[C@H](CCC(=O)O)NC(=O)[C@@H](NC(=O)[C@H](CC(=O)O)NC(C)=O)[C@@H](C)O)C(C)C)C(C)C)C(=O)c1ccc(/N=N\c2ccc([N+](=O)[O-])cc2)cc1
100 | CCCN(NC(=O)[C@H]1CCCN1C(=O)[C@@H](NC(=O)[C@@H](NC(=O)[C@H](CC(=O)O)NC(=O)[C@H](CCC(=O)O)NC(=O)[C@@H](NC(=O)[C@H](CC(=O)O)NC(C)=O)[C@@H](C)O)C(C)C)C(C)C)C(=O)Sc1ccc(Cl)cc1
> 100 | CCCN(NC(=O)[C@H]1CCCN1C(=O)[C@@H](NC(=O)[C@@H](NC(=O)[C@H](CC(=O)O)NC(=O)[C@H](CCC(=O)O)NC(=O)[C@@H](NC(=O)[C@H](CC(=O)O)NC(C)=O)[C@@H](C)O)C(C)C)C(C)C)C(=O)OC(C)(C)C(Cl)(Cl)Cl
> 100 | CCCN(NC(=O)[C@H]1CCCN1C(=O)[C@@H](NC(=O)[C@@H](NC(=O)[C@H](CC(=O)O)NC(=O)[C@H](CCC(=O)O)NC(=O)[C@@H](NC(=O)[C@H](CC(=O)O)NC(C)=O)[C@@H](C)O)C(C)C)C(C)C)C(=O)c1ccc(-c2ccccc2)cc1
> 100 | CCCN(NC(=O)[C@H]1CCCN1C(=O)[C@@H](NC(=O)[C@@H](NC(=O)[C@H](CC(=O)O)NC(=O)[C@H](CCC(=O)O)NC(=O)[C@@H](NC(=O)[C@H](CC(=O)O)NC(C)=O)[C@@H](C)O)C(C)C)C(C)C)C(=O)c1cc(C(F)(F)F)cc(C(F)(F)F)c1
0.9 | CCN(NC(=O)[C@H]1CCCN1C(=O)[C@@H](NC(=O)[C@@H](NC(=O)[C@H](CC(=O)O)NC(=O)[C@H](CCC(=O)O)NC(=O)[C@@H](NC(=O)[C@H](CC(=O)O)NC(C)=O)[C@@H](C)O)C(C)C)C(C)C)C(=O)OC(Cl)C(Cl)(Cl)Cl (some centres not stated)
20 | CCCN(NC(=O)[C@H]1CCCN1C(=O)[C@@H](NC(=O)[C@@H](NC(=O)[C@H](CC(=O)O)NC(=O)[C@H](CCC(=O)O)NC(=O)[C@@H](NC(=O)[C@@H](N)CC(=O)O)[C@@H](C)O)C(C)C)C(C)C)C(=O)N[C@@H](CO)C(=O)N[C@@H](CCSC)C(=O)N[C@@H](CO)C(=O)N[C@@H](Cc1ccc(O)cc1)C(=O)N[C@H](C(=O)N[C@@H](Cc1c[nH]c2ccccc12)C(=O)N[C@H](C(=O)NCC(=O)N[C@@H](CCCCN)C(=O)O)[C@@H](C)O)[C@@H](C)O
10 | CCCN(NC(=O)[C@H]1CCCN1C(=O)[C@@H](NC(=O)[C@@H](NC(=O)[C@H](CC(=O)O)NC(=O)[C@H](CCC(=O)O)NC(=O)[C@@H](NC(=O)[C@H](CC(=O)O)NC(C)=O)[C@@H](C)O)C(C)C)C(C)C)C(=O)N[C@@H](CO)C(=O)N[C@@H](CCSC)C(=O)N[C@@H](CO)C(=O)N[C@@H](Cc1ccc(O)cc1)C(=O)N[C@H](C(=O)N[C@@H](Cc1c[nH]c2ccccc12)C(=O)N[C@H](C(=O)NCC(=O)N[C@@H](CCCCN)C(=O)O)[C@@H](C)O)[C@@H](C)O
> 100 | CCCC(=O)N(CCC)NC(=O)[C@H]1CCCN1C(=O)[C@@H](NC(=O)[C@@H](NC(=O)[C@H](CC(=O)O)NC(=O)[C@H](CCC(=O)O)NC(=O)[C@@H](NC(=O)[C@H](CC(=O)O)NC(C)=O)[C@@H](C)O)C(C)C)C(C)C
> 100 | CCCN(NC(=O)[C@H]1CCCN1C(=O)[C@@H](NC(=O)[C@@H](NC(=O)[C@H](CC(=O)O)NC(=O)[C@H](CCC(=O)O)NC(=O)[C@@H](NC(=O)[C@H](CC(=O)O)NC(C)=O)[C@@H](C)O)C(C)C)C(C)C)C(=O)CBr

SMILES | Ki [µM]
CCCN(NC(=O)[C@H]1CCCN1C(=O)[C@@H](NC(=O)[C@@H](NC(=O)[C@H](CC(=O)O)NC(=O)[C@H](CCC(=O)O)NC(=O)[C@@H](NC(=O)[C@H](CC(=O)O)NC(C)=O)[C@@H](C)O)C(C)C)C(C)C)C(=O)Oc1ccc([N+](=O)[O-])cc1 | 2
CCCN(NC(=O)[C@H]1CCCN1C(=O)[C@@H](NC(=O)[C@@H](NC(=O)[C@H](CC(=O)O)NC(=O)[C@H](CCC(=O)O)NC(=O)[C@@H](NC(=O)[C@H](CC(=O)O)NC(C)=O)[C@@H](C)O)C(C)C)C(C)C)C(=O)c1ccc(S(=O)(=O)F)cc1 | > 100
CCCN(NC(=O)[C@H]1CCCN1C(=O)[C@@H](NC(=O)[C@@H](NC(C)=O)C(C)C)C(C)C)C(=O)Oc1ccc([N+](=O)[O-])cc1 | 100

Molecular target: T1, NS3
Assay: Compound was evaluated for its binding affinity against NS3 protease
Parameters: species or system Hepacivirus hominis

SMILES | Ki [µM]
CCCN(NC(=O)[C@H]1CCCN1C(=O)[C@@H](NC(=O)[C@@H](NC(=O)[C@H](CC(=O)O)NC(=O)[C@H](CCC(=O)O)NC(=O)[C@@H](NC(=O)[C@H](CC(=O)O)NC(C)=O)[C@@H](C)O)C(C)C)C(C)C)C(=O)Oc1ccc([N+](=O)[O-])cc1 | 3
